Measurements from ChEMBL document CHEMBL1201862, “PubChem BioAssay data set” (2004).
Calls of active or inactive are those of the source. Unless noted, the rule behind the calls is not given here.

How the values were obtained:
[1] = molecular target: T1, Replicative DNA helicase DnaB (Mycobacterium tuberculosis, UniProt P9WMR3); experiment: DnaB intein splicing inhibitors, dose response, biochemical, cell-free fluorescence (AID 449749); type: functional
T1 sequence (P9WMR3 whole entry): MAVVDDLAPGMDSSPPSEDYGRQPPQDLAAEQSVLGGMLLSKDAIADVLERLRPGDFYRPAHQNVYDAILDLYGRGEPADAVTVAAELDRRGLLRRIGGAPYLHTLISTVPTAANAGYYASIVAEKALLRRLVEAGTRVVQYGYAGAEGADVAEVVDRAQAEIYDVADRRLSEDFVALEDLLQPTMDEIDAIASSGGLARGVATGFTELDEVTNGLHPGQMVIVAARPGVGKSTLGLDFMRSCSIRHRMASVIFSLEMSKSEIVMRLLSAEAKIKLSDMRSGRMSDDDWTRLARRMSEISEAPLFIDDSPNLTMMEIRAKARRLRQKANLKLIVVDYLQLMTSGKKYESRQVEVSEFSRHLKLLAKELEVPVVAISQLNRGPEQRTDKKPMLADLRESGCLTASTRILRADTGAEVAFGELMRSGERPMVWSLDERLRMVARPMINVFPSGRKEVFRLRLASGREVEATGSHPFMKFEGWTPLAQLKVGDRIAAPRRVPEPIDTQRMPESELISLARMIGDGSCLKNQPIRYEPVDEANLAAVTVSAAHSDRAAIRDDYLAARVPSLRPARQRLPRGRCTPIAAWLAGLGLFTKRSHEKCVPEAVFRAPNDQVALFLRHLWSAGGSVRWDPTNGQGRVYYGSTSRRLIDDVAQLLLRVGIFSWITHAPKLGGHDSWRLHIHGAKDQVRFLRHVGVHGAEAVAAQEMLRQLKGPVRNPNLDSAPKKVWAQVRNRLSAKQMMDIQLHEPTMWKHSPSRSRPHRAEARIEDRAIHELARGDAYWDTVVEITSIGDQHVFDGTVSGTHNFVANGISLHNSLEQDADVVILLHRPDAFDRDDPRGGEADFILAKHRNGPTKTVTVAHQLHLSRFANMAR

Protein RecA = molecular target: T2, Protein RecA (Mycobacterium tuberculosis, UniProt P9WHJ3); experiment: Fluorescence Cell-Free Homogeneous Dose Retest to Identify Inhibitors of RecA-Intein Splicing Activity. [Related pubchem assays (depositor defined):AID2097, AID2223, AID489010, AID492950]; type: functional
T2 sequence (P9WHJ3 whole entry): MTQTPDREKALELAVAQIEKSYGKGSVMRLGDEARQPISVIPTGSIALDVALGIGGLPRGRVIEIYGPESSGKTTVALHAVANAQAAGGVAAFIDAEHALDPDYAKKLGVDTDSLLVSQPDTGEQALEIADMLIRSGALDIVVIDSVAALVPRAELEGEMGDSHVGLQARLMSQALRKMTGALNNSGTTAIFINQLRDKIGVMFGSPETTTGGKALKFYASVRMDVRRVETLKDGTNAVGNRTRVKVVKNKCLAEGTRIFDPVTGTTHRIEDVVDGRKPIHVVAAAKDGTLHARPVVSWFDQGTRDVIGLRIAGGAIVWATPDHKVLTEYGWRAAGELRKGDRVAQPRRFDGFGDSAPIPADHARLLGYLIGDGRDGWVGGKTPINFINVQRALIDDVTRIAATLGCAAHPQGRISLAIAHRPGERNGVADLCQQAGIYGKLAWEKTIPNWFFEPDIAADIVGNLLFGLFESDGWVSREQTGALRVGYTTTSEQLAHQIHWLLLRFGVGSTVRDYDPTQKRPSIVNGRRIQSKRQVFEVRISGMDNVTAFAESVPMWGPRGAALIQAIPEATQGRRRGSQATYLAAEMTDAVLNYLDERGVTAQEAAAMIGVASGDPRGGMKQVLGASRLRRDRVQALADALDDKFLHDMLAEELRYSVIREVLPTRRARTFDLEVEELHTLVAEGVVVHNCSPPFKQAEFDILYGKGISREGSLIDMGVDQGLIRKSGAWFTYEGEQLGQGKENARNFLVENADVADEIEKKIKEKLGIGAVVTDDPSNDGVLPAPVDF

[2] = molecular target: T3, Tyrosyl-DNA phosphodiesterase 2 (Homo sapiens, UniProt O95551); experiment: potency against TDP2 phosphodiesterase activity – biochemical, epi absorbance, IC50, dose response (AID 743297)
T3 sequence (O95551 whole entry): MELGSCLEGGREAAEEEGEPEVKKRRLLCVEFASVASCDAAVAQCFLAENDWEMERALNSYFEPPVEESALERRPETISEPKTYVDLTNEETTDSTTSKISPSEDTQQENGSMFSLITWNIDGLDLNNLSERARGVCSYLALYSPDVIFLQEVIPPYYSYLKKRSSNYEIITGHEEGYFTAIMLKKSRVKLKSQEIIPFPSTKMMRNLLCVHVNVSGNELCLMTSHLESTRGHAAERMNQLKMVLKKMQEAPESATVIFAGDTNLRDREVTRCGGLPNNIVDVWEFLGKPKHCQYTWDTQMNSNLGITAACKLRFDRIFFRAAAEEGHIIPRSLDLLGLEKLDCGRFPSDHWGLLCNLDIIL

[3] = molecular target: T4, Apoptotic protease-activating factor 1 (Homo sapiens, UniProt O14727); type: functional
T4 sequence (O14727 whole entry): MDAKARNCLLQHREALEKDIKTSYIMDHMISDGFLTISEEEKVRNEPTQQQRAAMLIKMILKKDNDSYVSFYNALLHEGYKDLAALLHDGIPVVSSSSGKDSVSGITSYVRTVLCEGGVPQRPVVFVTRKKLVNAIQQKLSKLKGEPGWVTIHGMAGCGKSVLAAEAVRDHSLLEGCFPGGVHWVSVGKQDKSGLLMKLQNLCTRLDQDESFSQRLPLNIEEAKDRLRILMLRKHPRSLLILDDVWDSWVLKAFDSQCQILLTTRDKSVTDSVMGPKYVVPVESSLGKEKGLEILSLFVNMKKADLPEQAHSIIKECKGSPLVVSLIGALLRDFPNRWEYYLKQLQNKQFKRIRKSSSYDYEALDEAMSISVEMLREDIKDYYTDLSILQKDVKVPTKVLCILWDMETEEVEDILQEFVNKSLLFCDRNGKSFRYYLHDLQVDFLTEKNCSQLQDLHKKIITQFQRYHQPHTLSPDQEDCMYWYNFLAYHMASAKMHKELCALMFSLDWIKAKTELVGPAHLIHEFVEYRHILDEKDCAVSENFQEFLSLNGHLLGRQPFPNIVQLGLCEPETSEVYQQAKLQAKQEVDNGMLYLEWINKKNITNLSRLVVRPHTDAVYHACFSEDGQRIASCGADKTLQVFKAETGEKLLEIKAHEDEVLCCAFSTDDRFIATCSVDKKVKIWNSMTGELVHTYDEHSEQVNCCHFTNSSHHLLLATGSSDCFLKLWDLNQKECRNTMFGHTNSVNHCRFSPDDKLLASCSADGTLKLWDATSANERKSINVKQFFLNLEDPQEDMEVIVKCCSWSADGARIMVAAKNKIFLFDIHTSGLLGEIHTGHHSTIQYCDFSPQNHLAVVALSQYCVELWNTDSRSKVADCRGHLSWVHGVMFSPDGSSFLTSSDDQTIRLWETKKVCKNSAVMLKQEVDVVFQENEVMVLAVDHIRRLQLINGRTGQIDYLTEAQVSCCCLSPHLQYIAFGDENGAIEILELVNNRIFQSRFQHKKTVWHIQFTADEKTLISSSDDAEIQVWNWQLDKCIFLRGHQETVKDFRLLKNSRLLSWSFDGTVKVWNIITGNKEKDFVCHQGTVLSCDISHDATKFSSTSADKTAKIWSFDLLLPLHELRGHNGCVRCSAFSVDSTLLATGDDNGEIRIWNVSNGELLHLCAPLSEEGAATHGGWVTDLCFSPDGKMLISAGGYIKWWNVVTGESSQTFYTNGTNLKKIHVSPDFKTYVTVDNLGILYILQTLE

[4] = molecular target: Arf-GAP with SH3 domain, ANK repeat and PH domain-containing protein 1 (Homo sapiens, UniProt Q9ULH1); type: functional;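 also: biochemical fluorescence polarization dose–response screen measuring inhibition of ASAP1; ASAP1 GAP domain stimulating GTP hydrolysis by truncated human ARF1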
Sequence of Arf-GAP with SH3 domain, ANK repeat and PH domain-containing protein 1 (Q9ULH1 whole entry, the tested form may be a part): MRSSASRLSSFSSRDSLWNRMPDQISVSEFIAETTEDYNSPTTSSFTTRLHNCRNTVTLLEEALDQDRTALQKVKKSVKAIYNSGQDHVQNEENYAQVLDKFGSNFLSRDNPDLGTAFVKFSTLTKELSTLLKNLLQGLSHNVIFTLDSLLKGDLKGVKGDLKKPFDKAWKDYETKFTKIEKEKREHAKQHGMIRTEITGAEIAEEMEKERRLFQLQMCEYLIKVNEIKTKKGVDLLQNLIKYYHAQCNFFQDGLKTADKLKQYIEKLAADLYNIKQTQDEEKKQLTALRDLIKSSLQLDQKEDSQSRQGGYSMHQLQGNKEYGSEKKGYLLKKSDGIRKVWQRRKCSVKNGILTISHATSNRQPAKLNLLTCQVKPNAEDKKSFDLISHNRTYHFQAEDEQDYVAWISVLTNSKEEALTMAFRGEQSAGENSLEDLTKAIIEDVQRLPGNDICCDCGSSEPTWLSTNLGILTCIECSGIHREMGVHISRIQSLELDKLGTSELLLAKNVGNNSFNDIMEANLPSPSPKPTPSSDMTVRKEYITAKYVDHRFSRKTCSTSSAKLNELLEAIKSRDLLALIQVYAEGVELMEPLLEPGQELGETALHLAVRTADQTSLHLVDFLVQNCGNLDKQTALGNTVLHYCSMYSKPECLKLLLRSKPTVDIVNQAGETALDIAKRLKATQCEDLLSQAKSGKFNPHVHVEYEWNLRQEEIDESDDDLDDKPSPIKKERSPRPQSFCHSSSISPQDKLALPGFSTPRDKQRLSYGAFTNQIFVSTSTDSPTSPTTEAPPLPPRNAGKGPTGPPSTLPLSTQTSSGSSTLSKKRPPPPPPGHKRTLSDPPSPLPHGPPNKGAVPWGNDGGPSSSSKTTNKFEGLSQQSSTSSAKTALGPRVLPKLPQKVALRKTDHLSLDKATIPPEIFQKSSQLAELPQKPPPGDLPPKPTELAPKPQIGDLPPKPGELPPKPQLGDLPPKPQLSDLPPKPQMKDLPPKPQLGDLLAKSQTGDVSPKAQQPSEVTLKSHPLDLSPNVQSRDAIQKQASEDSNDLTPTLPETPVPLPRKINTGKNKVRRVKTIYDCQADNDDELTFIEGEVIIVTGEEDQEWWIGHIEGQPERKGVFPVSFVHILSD

[5] = Inhibition of T. cruzi Tulahuen strain amastigotes in L-6 muscle cells Measured in Cell-Based and Microorganism Combination System Using Plate Reader - 2138-03_Inhibitor_Dose_CherryPick_Activity.; type: functional; settings: Rattus norvegicus, L6
[6] = Inhibition of Plasmodium falciparum NF54 Measured in Cell-Based System Using Plate Reader - 2138-11_Inhibitor_Dose_CherryPick_Activity.; type: functional
[7] = L6 myocyte viability loss – cell-based, plate reader, cherry-pick, cytotoxicity control, dose response (AID 651896); type: functional
[8] = intracellular Trypanosoma cruzi inhibitors in host cells – cell-based, plate reader, cherry-pick samples, set 3, dose response (AID 651818); type: functional;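 also: compounds incubated with infected cells for about four days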
[9] = African trypanosome bloodstream form growth inhibition – STIB900 strain, plate reader, cherry pick, dose response (AID 651893); type: functional, cell-based, Trypanosoma brucei rhodesiense; settings: Trypanosoma brucei
[10] = antileishmanial activity on axenic amastigotes – plate reader, cherry pick, dose response (AID 651891); type: functional, cell-based; settings: Leishmania donovani

SMILES	AC50 [1]	EC50 (Protein RecA)	IC50 [2]	IC50 [3]	IC50 [4]	IC50 [5]	IC50 [6]	IC50 [7]	AC50 [8]	IC50 [9]	IC50 [10]
COc1ccccc1Nc1cc2cc(Br)ccc2c(=O)[nH]1	> 120 µM (inactive)	23.3 µM (active)	10.7 µM (inactive)	1.51 µM (active)	165 µM (inactive)						
COc1ccc(CN(C)C[C@@H]2Oc3c(NC(=O)c4ccncc4)cccc3C(=O)N([C@H](C)CO)C[C@H]2C)cc1						5.91 µM (inactive)	5.91 µM (inactive)	> 100 µM (inactive)	361 nM (active)	2.62 µM (inactive)	> 100 µM (inactive)
